31 compounds from paper PMC6792352, “Limited Chemical Structural Diversity Found to Modulate Thyroid Hormone Receptor in the Tox21 Chemical Library” (Environmental Health Perspectives, 2019) can be followed below.

Structures can show the parent of a compound that is named as a salt. Where two headings read alike, the source gives them in different places.

The subject of this data set is GH3-TRE-Luc cell line. To be noted: read-out: AC50 (uM) modified / 1000, viability, 1 nM T3 present, 24 h.

Regarding `C[C@]12CC[C@@H]3c4ccc(O)cc4CC[C@H]3[C@@H]1CC[C@@H]2OC(=O)CCC1CCCC1` [Estradiol cypionate], the CC50 runs as follows: (Tox21_110001=Tox21_110003) 32.5 µM; (Tox21_110001=Tox21_112331) 43.4 µM; (Tox21_110001=Tox21_301818) 86.1 µM. As for `CN(C)CCOc1ccccc1Cc1ccccc1` [Phentoloxamine PAS], for the setting “Tox21_110001=Tox21_113232”, the CC50 was 25.5 µM.

On to `CC/C(=C(\c1ccccc1)c1ccc(OCCN(C)C)cc1)c1ccccc1` [Tamoxifen citrate], for which the CC50 by setting is: (Tox21_110001=Tox21_110938) 5.89 µM; (Tox21_110001=Tox21_202070) 10.9 µM; (Tox21_110001=Tox21_300274) 4.69 µM. For the compound `[H]/N=C(\N/C(=N/[H])NCCCCCCNC(=N)NC(=N)Nc1ccc(Cl)cc1)Nc1ccc(Cl)cc1` [Chlorhexidine dihydrochloride], the CC50 (Tox21_110001=Tox21_302689) was found to be 5.24 µM. Take `CC#C[C@]1(O)CC[C@H]2[C@@H]3CCC4=CC(=O)CCC4=C3[C@@H](c3ccc(N(C)C)cc3)C[C@@]21C` [Mifepristone]: the CC50 is, setting by setting: (Tox21_110001=Tox21_110952) 9.81 µM; (Tox21_110001=Tox21_301841) 36.7 µM. On to `Cc1cc(-c2ccc(/N=N/c3ccc4c(S(=O)(=O)O)cc(S(=O)(=O)O)c(N)c4c3O)c(C)c2)ccc1/N=N/c1ccc2c(S(=O)(=O)O)cc(S(=O)(=O)O)c(N)c2c1O` [C.I. Direct Blue 53], for which, under “Tox21_110001=Tox21_113237”, the CC50 stood at 21.8 µM. `C=C(C)[C@H]1Cc2c(ccc3c2O[C@@H]2COc4cc(OC)c(OC)cc4[C@@H]2C3=O)O1` [Rotenone]: the CC50 amounted to 3.27 µM (Tox21_110001=Tox21_110819), 15.5 µM (Tox21_110001=Tox21_201904) and 5.41 µM (Tox21_110001=Tox21_300695). For the compound `Nc1ccc(-c2ccc(N)c(N)c2)cc1N` [3,3'-Diaminobenzidine], where the note is “Tox21_110001=Tox21_302170”, the CC50 is 93.2 µM. For the compound `COc1ccc(CN(CCN(C)C)c2ccccn2)cc1` [Pyrilamine], the CC50 (Tox21_110001=Tox21_200978) amounted to 39.2 µM.

For the compound `CCn1c2ccccc2c2cc(N)ccc21` [3-Amino-9-ethylcarbazole], the CC50 (Tox21_110001=Tox21_303548) stood at 93.2 µM.

For `C=C[C@H]1C[N@@]2CC[C@H]1C[C@H]2[C@H](O)c1ccnc2ccc(OC)cc12` [Quinine], under “Tox21_110001=Tox21_112389”, the CC50 came to 42.9 µM.

`C[C@@H]1C[C@@H]([C@H](O)CC2CC(=O)NC(=O)C2)C(=O)[C@@H](C)C1` [Cycloheximide]: the CC50 was found to be 0.256 µM (Tox21_110001=Tox21_113580), 0.0922 µM (Tox21_110001=Tox21_201158) and 1.49 µM (Tox21_110001=Tox21_303652). Consider `O=C1OC2(c3ccccc31)c1cc(I)c(O)c(I)c1Oc1c2cc(I)c(O)c1I` [FD&C Red 3], for which the CC50 reads like this: (Tox21_110001=Tox21_202932) 18.4 µM; (Tox21_110001=Tox21_302085) 23.6 µM.

On to `CC(=C(CCO)SSCC1CCCO1)N(C=O)Cc1cnc(C)nc1N` (stereo in doubt) [Fursultiamine], for which the CC50 (Tox21_110001=Tox21_112989) came to 34.7 µM. On to `O=C(NCC1CCCCN1)c1cc(OCC(F)(F)F)ccc1OCC(F)(F)F` (stereo not shown) [Flecainide], for which the CC50 (Tox21_110001=Tox21_110151) was 36.6 µM.

As for `CC(=O)Nc1ccc(C(=O)CCl)cc1` [4'-(Chloroacetyl)acetanilide], the CC50 (Tox21_110001=Tox21_302954) was determined as 16.5 µM. Consider `O=C(O)CS` [Ammonium thioglycolate], for which the CC50 (Tox21_110001=Tox21_202751) amounted to 58.7 µM. Take `COC(=O)[C@H]1[C@H]2C[C@@H]3c4[nH]c5ccccc5c4CCN3C[C@H]2C[C@@H](OC(=O)c2cc(OC)c(OC)c(OC)c2)[C@@H]1OC` [Deserpidine]: the CC50 came to 1.94 µM (Tox21_110001=Tox21_112646) and 27.7 µM (Tox21_110001=Tox21_113102). Take `CN1CCc2cccc3c2[C@H]1Cc1ccc(O)c(O)c1-3` [Apomorphine]: the CC50 (Tox21_110001=Tox21_110967) was 27.3 µM.

Consider `CN(Cc1cnc2nc(N)nc(N)c2n1)c1ccc(C(=O)N[C@@H](CCC(=O)O)C(=O)O)cc1` [Methotrexate], for which, for the setting “Tox21_110001=Tox21_300269”, the CC50 is 0.164 µM. On to `CC1=CC(=C(c2ccc(N)cc2)c2ccc(N)cc2)C=CC1=N` [C.I. Basic Violet 14], for which the CC50 worked out at 15.1 µM (Tox21_110001=Tox21_112288) and 5.54 µM (Tox21_110001=Tox21_202790). On to `Nc1ccn([C@@H]2O[C@H](CO)[C@@H](O)[C@@H]2O)c(=O)n1` [Cytarabine], for which the CC50 was 0.708 µM (Tox21_110001=Tox21_111203) and 0.237 µM (Tox21_110001=Tox21_301971). For the compound `CC(C)NCC(O)COc1cccc2ccccc12` (stereo not shown) [Propranolol hydrochloride], the CC50 came out at 73 µM (Tox21_110001=Tox21_201886) and 30.5 µM (Tox21_110001=Tox21_302905). With `COc1ccc(CCN(C)CCCC(C#N)(c2ccc(OC)c(OC)c2)C(C)C)cc1OC` (stereo not shown) [Verapamil], the CC50 (Tox21_110001=Tox21_110300) came to 23.2 µM.

Take `CCN(CC)CCCC(C)Nc1ccnc2cc(Cl)ccc12` (stereo not shown) [Chloroquine bis(phosphate)]: where the note is “Tox21_110001=Tox21_110115”, the CC50 was 19.6 µM. As to `O=C1Cc2cc(CCN3CCN(c4nsc5ccccc45)CC3)c(Cl)cc2N1` [Ziprasidone], for the setting “Tox21_110001=Tox21_113525”, the CC50 is 15.3 µM.

As to `CCCCCCCCCCCCCCCCn1cc[n+](C)c1` [1-Hexadecyl-3-methylimidazolium tetrafluoroborate], the CC50 (Tox21_110001=Tox21_202647) turned out to be 12.9 µM. As for `Nc1ccc(Nc2ccccc2)cc1` [N-Phenyl-1,4-benzenediamine], the CC50 by setting is: (Tox21_110001=Tox21_202144) 42.9 µM; (Tox21_110001=Tox21_300027) 22.6 µM.

For the compound `CCCOC(=O)c1cc(O)c(O)c(O)c1` [Propyl gallate], the CC50 is 32.9 µM (Tox21_110001=Tox21_113531), 61.7 µM (Tox21_110001=Tox21_202286) and 72.8 µM (Tox21_110001=Tox21_300060). For `CCCCCCCCCCCCn1cc[n+](C)c1` [1-Dodecyl-3-methylimidazolium hexafluorophosphate], the CC50 (Tox21_110001=Tox21_200596) came to 4.11 µM. With `COC(=O)C1=C(C)NC(C)=C(C(=O)OCCN(C)Cc2ccccc2)C1c1cccc([N+](=O)[O-])c1` (stereo not shown) [Nicardipine], the CC50 (Tox21_110001=Tox21_110211) is 7.48 µM and the CC50 (Tox21_110001=Tox21_301832) was found to be 22.2 µM.
